Test results: PMC11359702, “Synthesis and Biochemical Evaluation of Ethanoanthracenes and Related Compounds: Antiproliferative and Pro-Apoptotic Effects in Chronic Lymphocytic Leukemia (CLL)” (Pharmaceuticals, 2024)
Where “and” joins values, the source holds several entries; their conditions need not be identical. Identical values can stand only once. Like-named read-outs stand apart in the source and are kept apart here.

Experiments:
CLL patients = tested on: CLL patients; parameters: method as in PMID 23291630, PMID 31160589; details: CLL patients ref 28,29; cited from earlier work
HG-3 cells [1] = test: Annexin V/PI apoptosis assay (FACS); type: cell-based, human
Method: (§1) The pro-apoptotic effects of selected nitrovinylethanoanthracene compounds 20a and 20f and anthracene chalcones 23a and 25n in HG-3 cells and PGA-1 cells was then investigated using FITC (fluorescein isothiocyanate), Annexin V/PI (propidium iodide) and FACS (fluorescence-activated cell sorting) analysis to characterize the mode of cellular death induced. Apoptosis was assessed as % total apoptosis (total of early (Q3) and late (Q2) apoptosis).
(§2) CLL cells PGA-1 and HG-3 (1 × 10^6 cells/mL) were treated at 37 °C with either the vehicle (1% (v/v) DMSO) or the ethanoanthracene compounds 20a, 20f, 23a and 25n (10 µM, 5 µM and 1 µM) for 48 h, following the protocol previously described. The cells were then harvested via centrifugation at 400× g in a temperature-controlled Sorvall centrifuge. The cells were rinsed with Ca^2+ Annexin-V-binding buffer (0.1 M HEPES, pH 7.4; 0.14 M NaCl; 25 mM CaCl2, 0.5 mL). The samples were resuspended in FITC Annexin V (diluted 1:33 in Ca^2+ Annexin V-binding buffer, 50 µL) and incubated for 10 min (on ice and protected from light). The samples were washed with Annexin-V-binding buffer and resuspended in a PI solution (0.5 µg/mL, 500 µL) and analyzed within 1 h using a BD Accuri C6 flow cytometer counting 10,000 cells using the FlowJo software Version 10 (FlowJo LLC, Ashland, OR, USA).

PGA-1 cells [2] = test: Annexin V/PI apoptosis assay (FACS); type: cell-based, human
Method: as §1, §2

PGA-1 cells [3] = test: alamarBlue cell viability assay; details: for IC50: read-out: PGA-1 IC50; for viability at 10 µM: read-out: cell viability
HG-3 cells [4] = test: alamarBlue cell viability assay; details: for IC50 / viability at 10 µM: HG-3, 24 h; for IC50: read-out: HG-3 IC50
HG-3 cells [5] = test: LDH cytotoxicity assay (CytoTox 96); type: cell-based; details: 24 h
Excerpt: (§3) The lactate dehydrogenase (LDH) assay is used to assess the membrane integrity of cells as a function of the cytoplasmic LDH released. The loss of cell membrane integrity (due to cytotoxic insult) is detectable through LDH release into the cell growth medium. The assay is initiated via the reduction in cellular co-factor NAD^+ to NADH catalyzed via the LDH enzyme. Newly formed NADH catalyzes the acidic reduction in iodonitrotetrazolium chloride (INT) to the highly colored formazan (red) (mediated via the diaphorase enzyme). […] At the 10-µM treatment concentration, mild to moderate cytotoxicity (19–47%) was observed. […] Cytotoxicity remained low to mild at 1 µM (4–18%) with 23a displaying the lowest LDH release (4%).
(§4) Following the treatment of the HG-3 and PGA-1 cells at 10 µM for 24 hr, the amount of LDH released was determined using an LDH assay kit from Promega (G1780). Cell lysis solution = 100% cell lysis and LDH release). Data are presented as % cell death at a concentration of 10 µM. Cells were treated with ethanoanthracene compounds 20a, 20f, 23a and 25n (1 µM and 10 µM) for 24 h. Values are shown as the mean of three independent experiments.
(§5) The cytotoxicity of the selected compounds 20a, 20f, 23a and 25n was determined using the CytoTox 96 non-radioactive cytotoxicity assay (Promega Corporation; 2800 Woods Hollow Road, Madison, WI, USA). CLL cells HG-3 and PGA-1 were incubated for 24 h and then treated with the selected compounds 20a, 20f, 23a and 25n at 10-µM and 1-µM concentrations, following the protocol outlined above in the cell viability assay. After 24 h, the lysis solution (10×) (20 µL) was added, and the cells were incubated for a further 1 h to ensure complete cell death. Supernatant (50 µL) was removed from each well and transferred to a clean 96-well plate. “Substrate mix” (50 µL) was added, and the plate was stored in the dark at 20 °C for 30 min. “Stop solution” (50 µL) was added to each well, and the absorbance at 490 nm was recorded using a Dynatech MR5000 plate reader; the % cell death was determined relative to the control cell lysis solution.

PGA-1 cells [6] = test: LDH cytotoxicity assay (CytoTox 96); type: cell-based; details: PGA-1, 10 µM, 24 h
Excerpt: as §3, §4, §5

SR = test: NCI-60 five-dose assay; type: cell-based, human
CCRF-CEM = test: NCI-60 five-dose assay; type: cell-based, human
[7] = HPLC stability study in phosphate buffers; type: physicochemical
Procedure, shortened: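 Compound stock (5 mg in 10 mL 80:20 acetonitrile–water) added to phosphate buffers at pH 4, 7.4 and 9 and held at 37 °C. Sampled over 24 h (0 min to 24 h) and analysed by C18 HPLC with UV detection at 254 nm; single experiments.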

MOLT-4 = test: NCI-60 five-dose assay; type: cell-based, human; details: MOLT-4
leukemia cell panel = test: NCI-60 five-dose assay, leukemia cell panel mean; type: cell-based, human; details: mean across the six leukemia cell lines
HG-3 cells [8] = details: 10 µM
melanoma cell lines = test: NCI-60 five-dose assay, melanoma cell lines; type: cell-based, human; details: range over melanoma cell lines
Method: (§6) A number of our most promising compounds identified through preliminary cell viability testing (23c, 23d, 23f, 23h, 23l, 23m, 23n, 23o, 24f, 24l, 25n and 26n) were selected for NCI drug screening in the 60-cell-line panel. The panel includes nine subcategories based on cancer tissue types, which include leukemia, ovarian, central nervous system, breast, lung, prostate, skin, renal and colon cancer. The compounds were initially assessed in a one-dose assay at a fixed treatment concentration of 10 µM. The compounds selected for further investigation were progressed to a five-dose assay across the concentration ranges of 0.01, 0.1, 1, 10 and 100 µM [72]. The endpoints assessed in the screening protocol were GI50, TGI and LC50 [72].

[9] = tested on: NCI 60 cancer cell line panel; test: NCI-60 five-dose assay, full-panel means; type: cell-based
Method: as §6

[10] = tested on: HG-3 and PGA-1 cell lines; test: alamarBlue cell viability assay, mean of both CLL cell lines; type: cell-based, human; details: mean of HG-3 and PGA-1
RPMI-8226 = test: NCI-60 five-dose assay; type: cell-based, human; details: RPMI-8226
HL-60(TB) = test: NCI-60 five-dose assay; type: cell-based, human; details: HL-60(TB)
K-562 = test: NCI-60 five-dose assay; type: cell-based, human; details: K-562
HG-3 cells [11] = test: alamarBlue viability after pan-caspase inhibitor Z-VAD-FMK pre-treatment; type: cell-based, human
Excerpt: Caspases (cysteine-aspartic proteases) are a family of aspartic acid residue-specific regulatory cysteine proteases that play an essential role in key cellular homeostatic processes such as inflammation and programmed cell death through the induction of apoptosis. To assess whether the biological activity of both major ethanoanthracene classes (nitrostyrene and chalcone-based) is caspase-dependent, compounds 20a and 23a (representing Series 1 and Series 4, respectively) (Figure 13) were selected for evaluation at treatment concentrations of 10 µM and 1 µM across both CLL cell lines using a caspase assay protocol. In HG-3 cells, pre-treatment with pan-caspase inhibitor (CI) Z-VAD-FMK [85] […] Little difference was found between cell viability responses (with or without the caspase inhibitor) at both 10-µM and 1-µM concentrations for compound 20a.
Compounds 20a and 23a (representing Series 1 and Series 4, respectively) were selected for evaluation at two treatment concentrations, 10 µM and 1 µM, across both HG-3 and PGA-1 CLL cells. […] The output was statistically analyzed using a one-way ANOVA with a Bonferroni multiple-comparison test. […]

[12] = tested on: chemoresistant DG-75 cell line; parameters: method as in PMID 31963567; details: chemoresistant DG-75 cell line ref 43; cited from earlier work
[13] = tested on: chemosensitive MUTU-1 cell line; parameters: method as in PMID 31963567; details: chemosensitive MUTU-1 cell line ref 43; cited from earlier work
[14] = tested on: healthy-donor peripheral blood mononuclear cells (PBMCs); test: Annexin V/PI assay in donor PBMCs; type: cell-based; details: 0.34 and 0.68 µM, 48 h
Excerpt: Whole blood samples from healthy donors (×5) were isolated, prepared and treated following the protocol previously described. The percentage of apoptosis observed in the treatment of isolated donor PBMCs with nitrovinylethanoanthracene 20a is concentration-dependent (Figure 11A). […] For ethanoanthracene 23a, the percentage of total apoptosis observed is illustrated in Figure 11B. […] The percentage of total apoptosis observed in the treatment of isolated donor PBMCs with the anthracene–chalcone 25n (normalized against vehicle 0.5% v/v DMSO) is illustrated in Figure 11C, and the dose-response behavior was also concentration-dependent, with compound 25n moderately toxic to healthy-donor PBMCs when treated at a 5.00 µM concentration (39%).
The human peripheral blood mononuclear cells (PBMCs) were generated as follows: peripheral blood was obtained from healthy donors (n = 2) after informed consent was received. The blood was then placed into a 50-mL falcon tube and diluted with an equal volume of phosphate-buffered saline (PBS). PBMCs were isolated using density-gradient centrifugation with LymphoPrep, as described previously. The cells were resuspended in RPMI media containing 10% FBS and 1% penicillin/streptomycin (P/S). The cells were counted using a haemocytometer and seeded into 96 well plates at a density of 1 × 10^5 cells/well (200 µL), and they were incubated at 37 °C for 1 h prior to compound treatment. The Annexin V/PI assay was used as a preliminary method of assessing the selective toxicity of the above compounds when compared with a previous alamarBlue cell viability assay in CLL cell lines. The assay was carried out as described above for the Annexin V/PI assay previously described above, and it was completed in triplicate on two independent days. Approval for this study was obtained from the School of Pharmacy and Pharmaceutical Sciences Trinity College Dublin Research Ethics Committee (2020-06-01-MS).

[15] = HG-3, 10 µM, lysis solution = 100%

CC1(C)CCC(CN2CCN(c3ccc(C(=O)NS(=O)(=O)c4ccc(NCC5CCOCC5)c([N+](=O)[O-])c4)c(Oc4cnc5[nH]ccc5c4)c3)CC2)=C(c2ccc(Cl)cc2)C1 [Venetoclax]
overall response (CLL patients): 80%

O=C1C2C3c4ccccc4C(C=C[N+](=O)[O-])(c4ccccc43)C2C(=O)N1CCCCCCN1C(=O)C2C3c4ccccc4C(C=C[N+](=O)[O-])(c4ccccc43)C2C1=O (stereo not shown) [Compound 20f]
total apoptosis (early Q3 + late Q2) (HG-3 cells [1]; HG-3, 1 µM): 82% | total apoptosis (early Q3 + late Q2) (HG-3 cells [1]; HG-3, 10 µM): 82–95% and 82% | total apoptosis (early Q3 + late Q2) (PGA-1 cells [2]; PGA-1, 1 µM): 76% | total apoptosis (early Q3 + late Q2) (PGA-1 cells [2]; PGA-1, 10 µM): 87–97% and 88% | IC50 (PGA-1 cells [3]; Homo sapiens, 24 h): 350 nM | viability at 10 µM (PGA-1 cells [3]; Homo sapiens, 24 h): 17% | potency relative to fludarabine control (PGA-1 cells [3]; PGA-1, IC50 ratio): 91 fold | potency relative to fludarabine control (HG-3 cells [4]; HG-3, IC50 ratio): 165 fold | IC50 (HG-3 cells [4]; Homo sapiens): 170 nM | viability at 10 µM (HG-3 cells [4]; Homo sapiens, read-out: cell viability): 14 to 43% | LDH release (cytotoxicity, % cell death) (HG-3 cells [5]; HG-3, 1 µM): 12% | LDH release (cytotoxicity, % cell death) (HG-3 cells [5]; [15]): 19% | LDH release (cytotoxicity, % cell death) (PGA-1 cells [6]): 19%

O=C(/C=C/C12c3ccccc3C(c3ccccc31)C1C(=O)NC(=O)C12)c1ccccn1 (stereo not shown) [Compound 23n]
GI50 (SR): 780 nM | IC50 (PGA-1 cells [3]; PGA-1, 24 h): 1480 nM | GI50 (CCRF-CEM): 1440 nM | Half-life pH 4 ([7]; pH 4 buffer, 37 °C): 19 h | % remaining 24 h pH 4 ([7]; pH 4 buffer, 37 °C, 24 h, HPLC): 39% and 38.86% | Half-life pH 7.4 ([7]; pH 7.4 buffer, 37 °C): > 24 h | % remaining 24 h pH 7.4 ([7]; pH 7.4 buffer, 37 °C, 24 h, HPLC): 70% and 70.29% | decrease in compound concentration over 24 h ([7]; pH 9.0): 11% | Half-life pH 9 ([7]; pH 9 buffer, 37 °C): > 24 h | % remaining 24 h pH 9 ([7]; pH 9 buffer, 37 °C, 24 h, HPLC): 89% and 88.59% | GI50 (MOLT-4): 2110 nM | GI50 (leukemia cell panel): 1320 nM | IC50 (HG-3 cells [4]): 2390 nM | cell viability (HG-3 cells [8]): 2% | GI50 (melanoma cell lines): 1120 to 2140 nM | CC50 [9]: 14800 nM | Mean TGI (MID TGI, total growth inhibition) ([9]; mean over NCI 60 cell line panel): 4570 nM | GI50 ([9]; mean over NCI 60 cell line panel, read-out: Mean GI50 (MID GI50, full-panel mean-graph mid-point)): 1660 nM | IC50 [10]: 1940 nM | GI50 (RPMI-8226): 1220 nM | GI50 (HL-60(TB)): 1020 nM | GI50 (K-562): 1370 nM

O=C1C2C3c4ccccc4C(C=C[N+](=O)[O-])(c4ccccc43)C2C(=O)N1c1ccccc1 (stereo not shown) [Compound 20a]
total apoptosis (early Q3 + late Q2) (HG-3 cells [1]; HG-3, 1 µM): 82% | total apoptosis (early Q3 + late Q2) (HG-3 cells [1]; HG-3, 10 µM): 82–95% and 95% | total apoptosis (early Q3 + late Q2) (PGA-1 cells [2]; PGA-1, 1 µM): 83% | total apoptosis (early Q3 + late Q2) (PGA-1 cells [2]; PGA-1, 10 µM): 87–97% and 97% | IC50 (PGA-1 cells [3]; Homo sapiens, 24 h): 610 nM | viability at 10 µM (PGA-1 cells [3]; Homo sapiens, 24 h): 11% | decrease in cell viability after Z-VAD-FMK pre-treatment (HG-3 cells [11]; HG-3, 1 µM compound): 2% | decrease in cell viability after Z-VAD-FMK pre-treatment (HG-3 cells [11]; HG-3, 10 µM compound): 10% | IC50 (HG-3 cells [4]; Homo sapiens): 480 nM | viability at 10 µM (HG-3 cells [4]; Homo sapiens, read-out: cell viability, HG-3, 10 µM, 24 h, vehicle = 100%): 14 to 43% | LDH release (cytotoxicity, % cell death) (HG-3 cells [5]; [15]): 33% | LDH release (cytotoxicity, % cell death) (PGA-1 cells [6]): 9% | IC50 [12]: 710 nM | IC50 [13]: 210 nM | IC50 ([10]; Homo sapiens, CLL cell): 550 nM | total apoptosis (toxicity) in healthy-donor PBMCs [14]: 10–35%
